In paper PMC6669322, “Small Molecule Binding to Alzheimer Risk Factor CD33 Promotes Aβ Phagocytosis” (iScience, 2019):

How the values were obtained:
CD33 = test system: CD33; design: method as in Rillahan et al., 2014; settings: estimated, flow cytometry assay; ref Rillahan et al., 2014; cited from earlier work
human CD33 = test system: human CD33; design: method as in Rillahan et al., 2014; settings: in words; ref Rillahan et al., 2014; cited from earlier work
CD33 Y127A = target: T1, CD33 Y127A (Homo sapiens, UniProt P20138, Y127A); assay: SNAP-tag homogeneous time-resolved fluorescence binding assay, CD33 Y127A; settings: Y127A variant, in words
T1 construct: human CD33 ORF (NM_001772.3), lacking its signal peptide; expressed in transfected cells; host or cells: HEK293T, transient, pT8-SNAP vector
T1 sequence (P20138 18-364 Y127A): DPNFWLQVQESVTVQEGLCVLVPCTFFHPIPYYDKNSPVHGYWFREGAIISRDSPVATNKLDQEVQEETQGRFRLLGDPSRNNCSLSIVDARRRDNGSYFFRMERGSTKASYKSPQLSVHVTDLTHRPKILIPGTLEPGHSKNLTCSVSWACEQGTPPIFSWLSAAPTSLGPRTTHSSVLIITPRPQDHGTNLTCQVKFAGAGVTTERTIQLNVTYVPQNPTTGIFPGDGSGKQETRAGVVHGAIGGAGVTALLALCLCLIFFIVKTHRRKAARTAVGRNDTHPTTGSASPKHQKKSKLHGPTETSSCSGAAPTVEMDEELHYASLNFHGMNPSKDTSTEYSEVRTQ
Description: Figure 3 P22 Binding to CD33 Wild-Type and Mutants (A) An example of affinity analysis for 1–243 μM (3-fold dilutions) of P22 binding to immobilized CD33^C36S. Data obtained in duplicate using single-cycle analysis and fit to a steady-state binding model to determine the equilibrium binding constant. (B) An example of affinity analysis of P22 binding to immobilized CD33 wild-type (WT) as per example in (A). (C) Sensorgram data for 0.01–9 μM (3-fold dilutions) of CD33^C36S binding to immobilized P22. Data obtained in triplicate using single concentration cycles and fit to a 1:1 binding model for kinetic analysis. […]
We then used our structural data to design mutations of key residues interacting with P22 to assess which interactions were the most important for binding affinity. The residues were mutated into alanine, and the effect of these mutations on P22 binding affinity was assessed using a SNAP-tag homogeneous time-resolved fluorescence binding assay (see Transparent Methods and Figures 3E–3G). […]
HEK293T cells were cultured in DMEM (ThermoFisher Scientific # 11965092) containing 10% FBS (Hyclone # SH30070.03) and 1% Penicillin-Streptomycin (ThermoFisher Scientific # 15140122) and transfected using Fugene HD (Promega # E2312) in 10 cm plates. […] The cells were counted, centrifuged and resuspended in PBS at a concentration of 1,000 cells/μL and 10 μL were plated into each well. […]

CD33 wild-type = target: T2, CD33 wild-type (Homo sapiens, UniProt P20138); assay: surface plasmon resonance (SPR), CD33 wild-type V-set domain; type: binding; settings: P22 as analyte, immobilized CD33 wild-type; 1:1 steady state model
T2 construct: DNA encoding D18 to H143 of human CD33; made in house
T2 sequence (P20138 18-143): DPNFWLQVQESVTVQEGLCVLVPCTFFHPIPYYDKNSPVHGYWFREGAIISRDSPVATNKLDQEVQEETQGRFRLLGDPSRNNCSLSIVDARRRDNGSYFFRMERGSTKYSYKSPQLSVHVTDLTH
Description: We next performed surface plasmon resonance (SPR) measurements on P22 binding to CD33 wild-type, and selected mutants, to obtain detailed kinetic data (see Transparent Methods). The CD33 V-set domain has a free cysteine residue (C36), which caused anomalous results in some of our SPR experiments due to disulfide-linked oligomers forming in solution.
Figure 3 P22 Binding to CD33 Wild-Type and Mutants (A) An example of affinity analysis for 1–243 μM (3-fold dilutions) of P22 binding to immobilized CD33^C36S. Data obtained in duplicate using single-cycle analysis and fit to a steady-state binding model to determine the equilibrium binding constant. (B) An example of affinity analysis of P22 binding to immobilized CD33 wild-type (WT) as per example in (A). (C) Sensorgram data for 0.01–9 μM (3-fold dilutions) of CD33^C36S binding to immobilized P22. Data obtained in triplicate using single concentration cycles and fit to a 1:1 binding model for kinetic analysis. (D) Sensorgram data for 0.03–9 μM (3-fold dilutions) CD33 WT binding to immobilized P22. Data obtained in triplicate using single concentration cycles and fit to a bivalent analyte model for kinetic analysis. Measurements in triplicate showing mean ± SD. […] Data presented are representative of three independent experiments performed in quadruplicate for each compound. […]

For `Cc1cc(C(=O)NC[C@@H](O)[C@@H](O)[C@@H]2O[C@@](OC[C@H]3O[C@@H](O[C@H]4[C@H](O)[C@@H](O)[C@H](OCCN)O[C@@H]4CO)[C@H](O)[C@@H](O)[C@H]3O)(C(=O)O)C[C@H](O)[C@H]2NC(=O)Cn2cc(C3CCCCC3)nn2)cc(C)c1O` [P22, β-D-Glucopyranoside, 2-aminoethyl O-[N-[2-(4-cyclohexyl-1H-1,2,3-triazol-1-yl)acetyl]-9-deoxy-9-[(4-hydroxy-3,5-dimethylbenzoyl)amino]-α-neuraminosyl] (2→6)-O-β-D-galactopyranosyl-(1→4)-], the IC50 (CD33) is listed as 11 µM, the “specificity for human CD33 over other human Siglecs” value (human CD33) is listed as “high specificity” and the “specific binding (total binding – binding in presence of 100 μM non-labeled P22)” value (CD33 Y127A) is listed as “completely abolished”. The Kd (CD33 wild-type) was 118 ± 41 µM.
